Where two headings read alike, the source gives them in different places.
Test: Plasma pharmacokinetics of oral NMP by LCMSMS
Type: in vivo, human
Settings: for AUC / Cmax / half-life / Tmax: human, po
Description: Blood samples were taken from patients before NMP and at one, two, four, eight and 24 h post dose. Plasma samples (20 μl) were prepared by adding five volumes of methanol containing deuterated internal standard. The samples were vortexed then centrifuged, and the supernatant was transferred to a vial and injected onto the LCMSMS. The LCMSMS system consisted of a Shimadzu UHPLC with a SCIEX 6500QTrap, a KinetexC18 (3 × 50 mm, 2.6 μm) column and using a gradient of 0.1% formic acid and acetonitrile. The initial conditions were 0.5 ml/min and 2% acetonitrile; this was held for 1 min then increased to 20% acetonitrile at 2 min then increased to 70% acetonitrile and held for 0.5 min. Equilibration time was 0.5 min. MRMs for NMP were 100 → 58, 100 → 69, 100 → 41 and for the internal standard d9NMP 109 → 62, […]. PK analysis was performed using Pkanalix (version 2021R1. Antony, France: Lixoft SAS, 2021).

[1] = all dose levels 25-800 mg oral, N = 28 profiles, plasma

**Q.** Which results are given for `CN1CCCC1=O` [NMP, N-methyl-2-pyrrolidone]?
**A.** Maximum plasma concentration (Cmax), highest achieved (800 mg dose, oral, one patient): 16700 ng/mL; CL/F, Overall Average [1]: 19.25 L⋅h⁻¹; Half-life, Overall Average [1]: ~ 1.5 h; V/F, Overall Average [1]: 39.49 L; Tmax, Overall Average (all dose levels 25-800 mg oral, N = 29 profiles, plasma): 33 min; single NMP dose predicted to be required to attain BET-inhibitory peak plasma concentrations (e.g. > 1 mM peak plasma, based on NMP's PK): more than 4.5 g; AUC (plasma, 25 mg, oral 25 mg, patient RMH-01 occasion 6, plasma, read-out: AUC): 1500 ng·h/mL; Cmax (plasma, 25 mg, oral 25 mg, patient RMH-01 occasion 6, plasma, read-out: Cmax): 930 ng/mL; half-life (plasma, 25 mg, oral 25 mg, patient RMH-01 occasion 6, plasma, read-out: Half-life (converted)): 52.2 min; Tmax (plasma, 25 mg, oral 25 mg, patient RMH-01 occasion 6, plasma, read-out: Tmax): 30 min; AUC (plasma, 50 mg, oral 50 mg, average of N = 5 profiles, plasma, read-out: AUC, Average): 2170 ng·h/mL; Cmax (plasma, 50 mg, oral 50 mg, average of N = 5 profiles, plasma, read-out: Cmax, Average): 1260 ng/mL; half-life (plasma, 50 mg, oral 50 mg, average of N = 5 profiles, plasma, read-out: Half-life, Average (converted)): 64.8 min; Tmax (plasma, 50 mg, oral 50 mg, average of N = 5 profiles, plasma, read-out: Tmax, Average): 30 min; AUC (plasma, 50 mg, oral 50 mg, individual profiles, patient RMH-01 occasions 1-5, plasma, read-out: AUC): 2830 ng·h/mL; Cmax (plasma, 50 mg, oral 50 mg, individual profiles, patient RMH-01 occasions 1-5, plasma, read-out: Cmax): 1720 ng/mL; half-life (plasma, 50 mg, oral 50 mg, individual profiles, patient RMH-01 occasions 1-5, plasma, read-out: Half-life (converted)): 72.6 min; Tmax (plasma, 50 mg, oral 50 mg, individual profiles, patient RMH-01 occasions 1-5, plasma, read-out: Tmax): 30 min; AUC (plasma, 100 mg, oral 100 mg, average of N = 5 profiles, plasma, read-out: AUC, Average): 7130 ng·h/mL; Cmax (plasma, 100 mg, oral 100 mg, average of N = 5 profiles, plasma, read-out: Cmax, Average): 2570 ng/mL; half-life (plasma, 100 mg, oral 100 mg, average of N = 5 profiles, plasma, read-out: Half-life, Average (converted)): 110 min; Tmax (plasma, 100 mg, oral 100 mg, average of N = 5 profiles, plasma, read-out: Tmax, Average): 30 min; AUC (plasma, 100 mg, oral 100 mg, individual profiles, patient RMH-02 occasions 1-5, plasma, read-out: AUC): 6970 ng·h/mL; Cmax (plasma, 100 mg, oral 100 mg, individual profiles, patient RMH-02 occasions 1-5, plasma, read-out: Cmax): 2730 ng/mL; half-life (plasma, 100 mg, oral 100 mg, individual profiles, patient RMH-02 occasions 1-5, plasma, read-out: Half-life (converted)): 101 min; Tmax (plasma, 100 mg, oral 100 mg, individual profiles, patient RMH-02 occasions 1-5, plasma, read-out: Tmax): 30 min; half-life (plasma, 200 mg, oral 200 mg, average of N = 8 profiles, plasma, read-out: Half-life, Average (converted)): 88.2 min; AUC (plasma, 200 mg, oral 200 mg, average of N = 9 profiles, plasma, read-out: AUC, Average): 9510 ng·h/mL; Cmax (plasma, 200 mg, oral 200 mg, average of N = 9 profiles, plasma, read-out: Cmax, Average): 4050 ng/mL; Tmax (plasma, 200 mg, oral 200 mg, average of N = 9 profiles, plasma, read-out: Tmax, Average): 33.6 min; half-life (plasma, 200 mg, oral 200 mg, individual profiles (PMC-03, MON-04, MON-06, MON-07, PMC-08), plasma, read-out: Half-life (converted)): 84 min; Tmax (plasma, 200 mg, oral 200 mg, individual profiles (PMC-03, MON-04, PMC-05, MON-06, MON-07, PMC-08), plasma, read-out: Tmax): 30 min; AUC (plasma, 300 mg, oral 300 mg, average of N = 3 profiles, plasma, read-out: AUC, Average): 22200 ng·h/mL; Cmax (plasma, 300 mg, oral 300 mg, average of N = 3 profiles, plasma, read-out: Cmax, Average): 8060 ng/mL; half-life (plasma, 300 mg, oral 300 mg, average of N = 3 profiles, plasma, read-out: Half-life, Average (converted)): 96 min; Tmax (plasma, 300 mg, oral 300 mg, average of N = 3 profiles, plasma, read-out: Tmax, Average): 40.2 min; Cmax (plasma, 300 mg, oral 300 mg, individual profiles (PMC-09, MON-10, MON-11), plasma, read-out: Cmax): 10500 ng/mL; half-life (plasma, 300 mg, oral 300 mg, individual profiles (PMC-09, MON-10, MON-11), plasma, read-out: Half-life (converted)): 99.6 min; Tmax (plasma, 300 mg, oral 300 mg, individual profiles (PMC-09, MON-10, MON-11), plasma, read-out: Tmax): 30 min; AUC (plasma, 400 mg, oral 400 mg, average of N = 2 profiles, plasma, read-out: AUC, Average): 22200 ng·h/mL; Cmax (plasma, 400 mg, oral 400 mg, average of N = 2 profiles, plasma, read-out: Cmax, Average): 8310 ng/mL; half-life (plasma, 400 mg, oral 400 mg, average of N = 2 profiles, plasma, read-out: Half-life, Average (converted)): 94.2 min; Tmax (plasma, 400 mg, oral 400 mg, average of N = 2 profiles, plasma, read-out: Tmax, Average): 30 min; AUC (plasma, 400 mg, oral 400 mg, individual profiles (MON-11 occasion 2, MON-12), plasma, read-out: AUC): 28500 ng·h/mL; Cmax (plasma, 400 mg, oral 400 mg, individual profiles (MON-11 occasion 2, MON-12), plasma, read-out: Cmax): 8990 ng/mL; half-life (plasma, 400 mg, oral 400 mg, individual profiles (MON-11 occasion 2, MON-12), plasma, read-out: Half-life (converted)): 107 min; Tmax (plasma, 400 mg, oral 400 mg, individual profiles (MON-11 occasion 2, MON-12), plasma, read-out: Tmax): 30 min; AUC (plasma, 500 mg, oral 500 mg, patient MON-11 occasion 3, plasma, read-out: AUC): 40600 ng·h/mL; Cmax (plasma, 500 mg, oral 500 mg, patient MON-11 occasion 3, plasma, read-out: Cmax): 12700 ng/mL; half-life (plasma, 500 mg, oral 500 mg, patient MON-11 occasion 3, plasma, read-out: Half-life (converted)): 119 min; Tmax (plasma, 500 mg, oral 500 mg, patient MON-11 occasion 3, plasma, read-out: Tmax): 30 min; AUC (plasma, 600 mg, oral 600 mg, patient MON-11 occasion 4, plasma, read-out: AUC): 56700 ng·h/mL; Cmax (plasma, 600 mg, oral 600 mg, patient MON-11 occasion 4, plasma, read-out: Cmax): 14400 ng/mL; half-life (plasma, 600 mg, oral 600 mg, patient MON-11 occasion 4, plasma, read-out: Half-life (converted)): 130 min; Tmax (plasma, 600 mg, oral 600 mg, patient MON-11 occasion 4, plasma, read-out: Tmax): 30 min; AUC (plasma, 700 mg, oral 700 mg, patient MON-11 occasion 5, plasma, read-out: AUC): 57600 ng·h/mL

Reference: PMC9884426, “A phase 1 clinical trial of the repurposable acetyllysine mimetic, n-methyl-2-pyrrolidone (NMP), in relapsed or refractory multiple myeloma” (Clinical Epigenetics, 2023)
